In patent US11384078B2, “5,6-fused-bicyclic compounds and compositions for the treatment of parasitic diseases” (NOVARTIS AG, priority 2017, dated 2022):

Assays:
Assay type in all cases: cell-based
[1] = test system: Leishmania donovani axenic amastigote; test: In vitro assay for growth inhibition of Leishmania donovani axenic amastigote (Cell TiterGlo luminescence); conditions: Leishmania donovani, L. donovani axenic amastigotes in vitro; read-out: L. donovani amastigotes EC50
Method in brief: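 Compound-treated wells received 9600 axenic amastigotes in RPMI 1640-based medium at pH 5.5 (37 °C, 5% CO2). Growth measured as ATP luminescence (CellTiter-Glo) after 2-day incubation; DMSO and reference compounds served as controls.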

[2] = test system: L. donovani HU3 strain in mouse peritoneal macrophages; test: Assay for inhibition of parasitemia of Leishmania donovani in mouse macrophages (SYBR Green nuclei count, high-content imaging); conditions: Leishmania donovani, Peritoneal macrophage, L. donovani in mouse peritoneal macrophages; read-out: L. donovani in Mouse Macrophages EC50
Method in brief: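 Parasite numbers were counted from SYBR Green-stained nuclei imaged by high-content microscopy after paraformaldehyde fixation and Triton permeabilization. Before this, compound was applied for 5 days at 37° C to BALB/c peritoneal macrophages (2×10^4/well) that had been exposed 24 h to 4×10^5 L. donovani HU3 amastigotes harvested from infected mouse spleens.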

[3] = test system: Trypanosoma brucei brucei (Lister 427) strain; test: Assay for growth inhibition against Trypanosoma brucei brucei (Cell TiterGlo ATP luminescence); conditions: Trypanosoma brucei, T. brucei brucei (Lister 427); read-out: T. Brucei (HAT) EC50
Method in brief: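 Growth read-out is cellular ATP by CellTiter-Glo luminescence, measured 30 min after reagent addition, following 2-day incubation at 37 °C in CO2. Parasites (10,000/mL, HMI-9 plus 10% FBS and 10% serum plus) faced 10 threefold dilutions in duplicate; IC50 taken as 50% growth inhibition versus untreated.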

[4] = test system: Trypanosoma cruzi amastigotes cultured in 3T3 fibroblast cells; test: Assay for growth inhibition of kinetoplastid parasite Trypanosoma cruzi (beta-galactosidase Tulahuen strain, CPRG readout); conditions: Trypanosoma cruzi, Fibroblast, T. cruzi amastigotes in 3T3 fibroblast cells; read-out: Buckner infectious T. cruzi EC50
Method in brief: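 3T3 fibroblasts (1,000 cells/well) plated overnight, treated with compound in DMSO, then infected with 10,000 Lac-Z-expressing Tulahuen trypomastigotes. After 6 days, 0.6 mM CPRG with 0.6% NP-40 added for 2 h at room temperature; absorbance gives relative intracellular amastigote numbers. Benznidazole and nifurtimox serve as positive controls.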

## O=C(Nc1ccc(F)c(-n2cc3cc(N4CCCC4)cnc3n2)c1)c1ccco1 [Compound 141, N-{4-fluoro-3-[5-(pyrrolidin-1-yl)-2H-pyrazolo[3,4-b]pyridin-2-yl]phenyl}furan-2-carboxamide]
[1]
  EC50: 80 nM
[2]
  EC50: 12 nM
[3]
  EC50: < 23 nM
[4]
  EC50: 22 nM

## CNC(=O)Nc1ccc(F)c(-n2cc3cc(NC)cnc3n2)c1 [Compound 142, 1-{4-fluoro-3-[5-(methylamino)-2H-pyrazolo[3,4-b]pyridin-2-yl]phenyl}-3-methylurea]
[1]
  EC50: 7800 nM
[2]
  EC50: 9200 nM
[3]
  EC50: 4300 nM
[4]
  EC50: 11000 nM

## O=C(Nc1ccc(F)c(-n2cc3cc(N4CCC4)cnc3n2)c1)N1CC(F)(F)C1 [Compound 144, N-{3-[5-(azetidin-1-yl)-2H-pyrazolo[3,4-b]pyridin-2-yl]-4-fluorophenyl}-3,3-difluoroazetidine-1-carboxamide]
[1]
  EC50: 23 nM
[2]
  EC50: 23 nM
[3]
  EC50: < 23 nM
[4]
  EC50: 17 nM

## O=C(Nc1ccc(F)c(-n2cc3cc(N4CCOCC4)cnc3n2)c1)N1CC(F)(F)C1 [Compound 145, 3,3-difluoro-N-{4-fluoro-3-[5-(morpholin-4-yl)-2H-pyrazolo[3,4-b]pyridin-2-yl]phenyl}azetidine-1-carboxamide]
[1]
  EC50: 5.4 nM
[2]
  EC50: 4.7 nM
[3]
  EC50: < 23 nM
[4]
  EC50: 18 nM

## CC(C)OC(=O)Nc1cnc2nn(-c3cc(NC(=O)N4CC(F)(F)C4)ccc3F)cc2c1 [Compound 146, propan-2-yl N-(2-{5-[(3,3-difluoroazetidine-1-carbonyl)amino]-2-fluorophenyl}-2H-pyrazolo[3,4-b]pyridin-5-yl)carbamate]
[1]
  EC50: 26 nM
[2]
  EC50: 12 nM
[3]
  EC50: < 23 nM
[4]
  EC50: 85 nM

## O=C(Nc1ccc(F)c(-n2cc3cc(N4CCC4)cnc3n2)c1)N1CC(F)C1 [Compound 147, N-{3-[5-(azetidin-1-yl)-2H-pyrazolo[3,4-b]pyridin-2-yl]-4-fluorophenyl}-3-fluoroazetidine-1-carboxamide]
[1]
  EC50: 6.1 nM
[2]
  EC50: 26 nM
[3]
  EC50: < 23 nM
[4]
  EC50: 4.8 nM

## O=C(Nc1ccc(F)c(-n2cc3cc(C4CCOCC4)cnc3n2)c1)N1CC(F)C1 [Compound 148, 3-fluoro-N-{4-fluoro-3-[5-(oxan-4-yl)-2H-pyrazolo[3,4-b]pyridin-2-yl]phenyl}azetidine-1-carboxamide]
[1]
  EC50: 8.1 nM
[2]
  EC50: 12 nM
[3]
  EC50: < 23 nM
[4]
  EC50: 14 nM

## O=C(Nc1ccc(F)c(-n2cc3cc(N4CCC4)cnc3n2)c1)N1CC[C@@H](F)C1 [Compound 149]
[1]
  EC50: 11 nM
[2]
  EC50: 7.9 nM
[3]
  EC50: < 23 nM
[4]
  EC50: 5.4 nM

## O=C(Nc1ccc(F)c(-n2cc3cc(C4CCOCC4)cnc3n2)c1)N1CC[C@@H](F)C1 [Compound 150, (R)-3-fluoro-N-(4-fluoro-3-(5-(tetrahydro-2H-pyran-4-yl)-2H-pyrazolo[3,4-b]pyridin-2-yl)phenyl)pyrrolidine-1-carboxamide]
[1]
  EC50: 14 nM
[2]
  EC50: 25 nM
[3]
  EC50: < 23 nM
[4]
  EC50: 21 nM

## O=C(Nc1ccc(F)c(-n2cc3cc(N4CCC4)cnc3n2)c1)c1ccco1 [Compound 151, N-{3-[5-(azetidin-1-yl)-2H-pyrazolo[3,4-b]pyridin-2-yl]-4-fluorophenyl}furan-2-carboxamide]
[1]
  EC50: 60 nM
[2]
  EC50: 13 nM
[3]
  EC50: < 23 nM
[4]
  EC50: 12 nM

## O=C(Nc1ccc(F)c(-n2cc3cc(CC(F)(F)F)cnc3n2)c1)N1CC(F)C1 [Compound 152, 3-fluoro-N-(4-fluoro-3-(5-(2,2,2-trifluoroethyl)-2H-pyrazolo[3,4-b]pyridin-2-yl)phenyl)azetidine-1-carboxamide]
[1]
  EC50: 3.7 nM
[2]
  EC50: 5.3 nM
[3]
  EC50: < 23 nM
[4]
  EC50: 1.7 nM

## CNc1cnc2nn(-c3cc(NC(=O)c4oc(C)nc4C)ccc3F)cc2c1 [Compound 153, N-{4-fluoro-3-[5-(methylamino)-2H-pyrazolo[3,4-b]pyridin-2-yl]phenyl}-2,4-dimethyl-1,3-oxazole-5-carboxamide]
[1]
  EC50: 210 nM
[2]
  EC50: 27000 nM
[3]
  EC50: 500 nM
[4]
  EC50: 150 nM
